Results reported in publication PMC3929239 (Bioorganic & medicinal chemistry letters, 2011).

Assays:
U87-MG mouse xenograft = conditions: cited from earlier work
450 kinases = 450 kinases profiled by KINOMEscan; cited from earlier work
CYP2D6 = CYP2D6 (Homo sapiens, UniProt P10635); experiment: Single point CYP450 inhibition test; format: in vitro ADME; conditions: for inhibition at 10 µM: human, CYP2D6 % inhibition
P110δ/P85α = biological target: T1, P110δ/P85α (Homo sapiens, UniProt O00329); experiment: Ambit KINOMEscan; format: binding
T1 sequence (O00329 1-1044): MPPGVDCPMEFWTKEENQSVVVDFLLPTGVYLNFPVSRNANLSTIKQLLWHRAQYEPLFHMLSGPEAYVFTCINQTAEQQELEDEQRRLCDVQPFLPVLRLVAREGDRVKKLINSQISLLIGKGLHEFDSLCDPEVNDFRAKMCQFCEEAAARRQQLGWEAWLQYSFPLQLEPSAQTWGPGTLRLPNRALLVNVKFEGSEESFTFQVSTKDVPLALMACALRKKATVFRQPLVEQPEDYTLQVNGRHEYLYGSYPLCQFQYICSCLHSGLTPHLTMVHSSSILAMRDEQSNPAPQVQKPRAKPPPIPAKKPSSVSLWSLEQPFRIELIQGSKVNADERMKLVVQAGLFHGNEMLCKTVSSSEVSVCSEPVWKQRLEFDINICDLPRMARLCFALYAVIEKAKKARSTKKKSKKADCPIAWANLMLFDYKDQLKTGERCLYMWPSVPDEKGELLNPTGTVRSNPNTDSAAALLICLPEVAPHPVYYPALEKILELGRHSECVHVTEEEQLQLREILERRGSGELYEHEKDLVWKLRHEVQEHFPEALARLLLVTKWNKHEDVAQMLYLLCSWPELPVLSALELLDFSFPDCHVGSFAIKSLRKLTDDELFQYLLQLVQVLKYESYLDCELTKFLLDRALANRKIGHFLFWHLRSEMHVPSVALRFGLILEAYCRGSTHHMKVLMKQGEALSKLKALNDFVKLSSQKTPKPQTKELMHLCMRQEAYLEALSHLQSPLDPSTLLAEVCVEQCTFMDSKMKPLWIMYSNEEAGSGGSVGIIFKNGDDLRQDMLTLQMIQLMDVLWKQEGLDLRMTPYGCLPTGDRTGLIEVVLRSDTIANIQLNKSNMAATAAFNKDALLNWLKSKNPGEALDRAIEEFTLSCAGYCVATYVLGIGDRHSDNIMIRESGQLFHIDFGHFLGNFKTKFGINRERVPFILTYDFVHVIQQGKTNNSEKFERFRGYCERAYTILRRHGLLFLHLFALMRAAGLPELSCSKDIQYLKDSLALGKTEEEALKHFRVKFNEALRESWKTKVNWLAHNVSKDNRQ

CYP3A4 = CYP3A4 (Homo sapiens, UniProt P08684); experiment: Single point CYP450 inhibition test; format: in vitro ADME
mTOR = mTOR (Homo sapiens, UniProt P42345); experiment: Ambit KINOMEscan; format: binding
P110γ = P110γ (Homo sapiens, UniProt P48736); experiment: Ambit KINOMEscan; format: binding
P110α/P85α = P110α/P85α (Homo sapiens, UniProt P42336); experiment: Ambit KINOMEscan; format: binding
[1] = test system: downstream targets of mTOR, S6K, and Akt; experiment: In vivo pharmacodynamic study; conditions: liver and lung tissues, after 6h, 20 mg/kg
PI3K-C2β = PI3K-C2β (Homo sapiens, UniProt O00750); experiment: Ambit KINOMEscan; format: binding
Sequence of PI3K-C2β (O00750 whole entry): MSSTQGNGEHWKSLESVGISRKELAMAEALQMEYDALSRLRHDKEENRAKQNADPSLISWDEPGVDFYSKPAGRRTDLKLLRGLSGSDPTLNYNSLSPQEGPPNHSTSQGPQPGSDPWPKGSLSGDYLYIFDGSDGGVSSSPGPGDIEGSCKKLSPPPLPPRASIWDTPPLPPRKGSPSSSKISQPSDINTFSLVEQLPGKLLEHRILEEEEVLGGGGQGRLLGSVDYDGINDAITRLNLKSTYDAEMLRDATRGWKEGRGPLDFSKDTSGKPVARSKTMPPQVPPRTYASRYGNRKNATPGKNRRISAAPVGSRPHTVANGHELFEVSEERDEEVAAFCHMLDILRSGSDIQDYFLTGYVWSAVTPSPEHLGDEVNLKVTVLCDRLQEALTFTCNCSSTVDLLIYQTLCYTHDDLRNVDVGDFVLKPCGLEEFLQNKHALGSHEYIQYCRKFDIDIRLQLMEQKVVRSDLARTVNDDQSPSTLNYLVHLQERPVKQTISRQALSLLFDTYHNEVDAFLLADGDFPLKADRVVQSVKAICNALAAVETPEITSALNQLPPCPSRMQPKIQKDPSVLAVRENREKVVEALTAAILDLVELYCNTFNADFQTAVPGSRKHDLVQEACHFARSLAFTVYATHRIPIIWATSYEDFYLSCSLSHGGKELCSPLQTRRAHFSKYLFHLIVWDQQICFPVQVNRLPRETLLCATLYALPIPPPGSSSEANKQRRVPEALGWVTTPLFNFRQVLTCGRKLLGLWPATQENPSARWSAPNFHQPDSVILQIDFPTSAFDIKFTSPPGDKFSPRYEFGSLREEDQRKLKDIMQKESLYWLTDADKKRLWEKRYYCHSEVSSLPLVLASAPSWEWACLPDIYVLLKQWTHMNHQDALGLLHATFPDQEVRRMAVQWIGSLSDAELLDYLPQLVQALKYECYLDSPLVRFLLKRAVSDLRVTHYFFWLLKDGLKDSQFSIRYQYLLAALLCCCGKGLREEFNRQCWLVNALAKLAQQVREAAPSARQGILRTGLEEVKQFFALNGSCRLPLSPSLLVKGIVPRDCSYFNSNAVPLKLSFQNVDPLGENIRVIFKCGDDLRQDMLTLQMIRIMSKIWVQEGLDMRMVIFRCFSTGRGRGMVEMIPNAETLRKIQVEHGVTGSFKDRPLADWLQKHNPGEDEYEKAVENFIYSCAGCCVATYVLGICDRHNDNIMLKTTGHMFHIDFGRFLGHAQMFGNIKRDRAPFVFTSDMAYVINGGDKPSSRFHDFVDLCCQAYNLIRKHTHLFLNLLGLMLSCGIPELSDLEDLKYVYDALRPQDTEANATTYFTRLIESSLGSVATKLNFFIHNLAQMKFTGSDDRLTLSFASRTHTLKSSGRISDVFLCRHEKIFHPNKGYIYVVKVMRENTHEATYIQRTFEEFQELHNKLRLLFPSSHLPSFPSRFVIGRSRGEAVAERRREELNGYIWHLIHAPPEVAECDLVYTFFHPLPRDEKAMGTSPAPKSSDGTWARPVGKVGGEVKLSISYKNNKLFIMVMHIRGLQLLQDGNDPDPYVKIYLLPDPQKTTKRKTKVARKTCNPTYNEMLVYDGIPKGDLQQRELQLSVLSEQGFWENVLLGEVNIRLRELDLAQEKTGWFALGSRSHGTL

Sequence of CYP2D6 (P10635 whole entry): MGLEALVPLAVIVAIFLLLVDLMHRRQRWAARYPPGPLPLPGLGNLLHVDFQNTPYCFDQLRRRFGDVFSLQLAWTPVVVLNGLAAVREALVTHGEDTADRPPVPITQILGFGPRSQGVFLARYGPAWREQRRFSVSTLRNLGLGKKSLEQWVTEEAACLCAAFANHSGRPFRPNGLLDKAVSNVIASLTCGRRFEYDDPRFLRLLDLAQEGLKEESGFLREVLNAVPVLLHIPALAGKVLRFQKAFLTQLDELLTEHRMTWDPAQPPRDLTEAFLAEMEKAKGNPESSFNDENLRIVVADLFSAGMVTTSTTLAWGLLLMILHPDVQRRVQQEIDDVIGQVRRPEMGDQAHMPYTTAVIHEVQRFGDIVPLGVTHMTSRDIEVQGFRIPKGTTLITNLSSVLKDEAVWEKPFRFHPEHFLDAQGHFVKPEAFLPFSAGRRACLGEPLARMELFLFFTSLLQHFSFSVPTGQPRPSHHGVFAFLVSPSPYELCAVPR
Sequence of P110γ (P48736 whole entry): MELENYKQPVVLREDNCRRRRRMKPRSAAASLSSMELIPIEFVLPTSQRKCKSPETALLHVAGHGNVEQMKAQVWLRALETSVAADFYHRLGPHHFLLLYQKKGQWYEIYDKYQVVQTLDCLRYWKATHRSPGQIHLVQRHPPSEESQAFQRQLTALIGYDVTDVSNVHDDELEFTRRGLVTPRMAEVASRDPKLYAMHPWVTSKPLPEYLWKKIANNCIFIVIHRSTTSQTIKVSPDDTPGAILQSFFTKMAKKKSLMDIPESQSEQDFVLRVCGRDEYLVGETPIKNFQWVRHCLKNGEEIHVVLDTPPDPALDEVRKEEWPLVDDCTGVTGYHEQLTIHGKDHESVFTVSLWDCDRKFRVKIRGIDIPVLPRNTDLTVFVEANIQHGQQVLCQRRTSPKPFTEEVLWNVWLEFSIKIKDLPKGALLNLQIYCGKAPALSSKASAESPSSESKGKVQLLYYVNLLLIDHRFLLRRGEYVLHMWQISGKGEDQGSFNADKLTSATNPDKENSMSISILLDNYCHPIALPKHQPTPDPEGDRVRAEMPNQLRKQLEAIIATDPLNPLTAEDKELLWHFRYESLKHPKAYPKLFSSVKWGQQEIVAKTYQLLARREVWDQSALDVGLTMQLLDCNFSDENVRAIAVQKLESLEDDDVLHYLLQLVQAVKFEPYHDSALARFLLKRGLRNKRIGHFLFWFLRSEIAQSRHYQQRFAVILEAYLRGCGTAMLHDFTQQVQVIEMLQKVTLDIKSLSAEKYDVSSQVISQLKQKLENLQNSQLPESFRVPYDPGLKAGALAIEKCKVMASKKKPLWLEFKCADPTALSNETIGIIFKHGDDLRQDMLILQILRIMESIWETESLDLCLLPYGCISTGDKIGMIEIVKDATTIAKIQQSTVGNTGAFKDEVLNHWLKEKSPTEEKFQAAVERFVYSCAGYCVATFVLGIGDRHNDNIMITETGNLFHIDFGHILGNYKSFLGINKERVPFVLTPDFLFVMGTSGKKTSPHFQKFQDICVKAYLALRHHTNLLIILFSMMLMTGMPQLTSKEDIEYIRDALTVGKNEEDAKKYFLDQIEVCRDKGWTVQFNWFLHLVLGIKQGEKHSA
Sequence of P110α/P85α (P42336 whole entry): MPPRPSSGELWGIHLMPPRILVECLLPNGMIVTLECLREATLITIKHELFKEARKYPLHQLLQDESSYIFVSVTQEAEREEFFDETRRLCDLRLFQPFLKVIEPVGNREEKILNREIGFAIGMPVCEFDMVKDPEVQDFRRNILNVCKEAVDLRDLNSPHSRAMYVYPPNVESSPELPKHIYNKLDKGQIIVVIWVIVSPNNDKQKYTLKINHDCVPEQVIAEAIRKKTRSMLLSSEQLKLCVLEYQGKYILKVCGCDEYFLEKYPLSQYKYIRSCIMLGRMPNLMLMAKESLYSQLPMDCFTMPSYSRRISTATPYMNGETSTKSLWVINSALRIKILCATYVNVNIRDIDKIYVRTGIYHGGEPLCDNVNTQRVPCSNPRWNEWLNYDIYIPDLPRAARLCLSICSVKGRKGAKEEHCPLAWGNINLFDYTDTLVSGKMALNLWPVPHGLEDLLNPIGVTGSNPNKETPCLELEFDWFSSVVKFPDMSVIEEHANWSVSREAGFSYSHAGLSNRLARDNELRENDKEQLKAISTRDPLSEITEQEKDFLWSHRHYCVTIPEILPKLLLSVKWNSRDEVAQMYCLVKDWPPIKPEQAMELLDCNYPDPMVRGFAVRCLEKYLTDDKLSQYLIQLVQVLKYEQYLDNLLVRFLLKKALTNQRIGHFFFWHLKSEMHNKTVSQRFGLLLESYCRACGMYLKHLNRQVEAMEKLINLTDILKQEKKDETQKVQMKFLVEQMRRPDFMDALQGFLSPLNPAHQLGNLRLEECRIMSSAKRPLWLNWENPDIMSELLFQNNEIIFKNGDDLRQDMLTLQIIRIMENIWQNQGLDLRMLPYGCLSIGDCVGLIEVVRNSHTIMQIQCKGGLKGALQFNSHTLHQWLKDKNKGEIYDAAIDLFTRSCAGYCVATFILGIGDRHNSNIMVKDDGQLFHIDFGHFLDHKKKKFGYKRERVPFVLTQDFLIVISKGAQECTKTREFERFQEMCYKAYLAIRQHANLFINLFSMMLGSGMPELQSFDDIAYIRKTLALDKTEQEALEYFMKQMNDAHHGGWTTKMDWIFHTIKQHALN
Sequence of CYP3A4 (P08684 whole entry): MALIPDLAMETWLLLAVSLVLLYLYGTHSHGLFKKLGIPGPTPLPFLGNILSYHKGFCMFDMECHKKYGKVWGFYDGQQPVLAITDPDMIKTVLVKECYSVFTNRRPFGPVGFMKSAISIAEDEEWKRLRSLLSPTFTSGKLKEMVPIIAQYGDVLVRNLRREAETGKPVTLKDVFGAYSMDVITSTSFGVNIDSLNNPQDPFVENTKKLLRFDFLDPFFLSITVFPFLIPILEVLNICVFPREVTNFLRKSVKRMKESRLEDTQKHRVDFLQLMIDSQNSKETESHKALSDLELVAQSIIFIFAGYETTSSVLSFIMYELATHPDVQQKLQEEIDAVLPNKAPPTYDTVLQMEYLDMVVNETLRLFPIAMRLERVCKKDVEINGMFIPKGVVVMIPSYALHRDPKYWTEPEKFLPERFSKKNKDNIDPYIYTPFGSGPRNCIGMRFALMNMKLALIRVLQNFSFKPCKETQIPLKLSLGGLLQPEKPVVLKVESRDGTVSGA

In the case of `CCC(=O)N1CCN(c2ccc(-n3c(=O)ccc4cnc5ccc(-c6cnc7ccccc7c6)cc5c43)cc2C(F)(F)F)CC1` [Torin1], the anti-tumor activity (U87-MG mouse xenograft) is listed as “exhibited anti-tumor activity” and the protein kinase off-targets (450 kinases) is listed as “no other significant protein kinase off-targets”.
`Cc1cc(-n2c(=O)ccc3cnc4ccc(-c5cnc6ccccc6c5)cc4c32)ccc1-c1ccc(C(=O)NC2CCN(C)CC2)cc1` [Compound 19] gave an inhibition at 10 µM (CYP2D6) of 24%.
For `CN1CCC(NC(=O)c2ccc(-c3ccc(-n4c(=O)ccc5cnc6ccc(-c7cnc8ccccc8c7)cc6c54)cc3C(F)(F)F)cc2)CC1` [Compound 10], the Ambit score (P110δ/P85α) was 2%, the CYP2D6 % inhibition (CYP2D6; 10 µM) was 51% and the inhibition at 10 µM (CYP2D6) was > 50%. For the same compound, the inhibition at 10 µM (CYP3A4) was > 60%, the Ambit score (mTOR) was 0% and the Ambit score (P110γ) was 0.05%. The Ambit score (P110α/P85α) was 0.1%, the “blocked phosphorylation of S6K (T389)” value [1] was 80–90% and the “blocked phosphorylation of pAkt (S473)” value [1] was 80–90%. It also gave an Ambit score (PI3K-C2β) of 0.65%.
